Results on 19 compounds are retold here after patent US7078550B2, “Silanyl phenols and naphthols” (Ciba Specialty Chemicals Corporation, priority 2001, dated 2006).

What all share (assay): Minimum Inhibitory Concentration (MIC) in the agar incorporation test
What all share (type): cell-based

Assay [1] deals with Aspergillus niger ATCC 6275. The conditions noted are these: ATCC6275, 72 h, Sabouraud 4% glucose agar, 3 days at 28° C. How it is done:
(§1) Determination of the Minimum Inhibitory Concentration (MIC) in the Agar Incorporation Test (MIC Test)
(§2) 0.3 ml of each dilution stage is mixed with 15 ml of still-liquid nutrient medium. After the nutrient medium has solidified, 10 μl of each of the following organism dilutions of the test strains in 0.85% NaCl solution are spotted onto the agar medium:
(§3) The plates are incubated for 24 hours at 37° C. (A. niger 3 days at 28° C.) and then the highest dilution (lowest concentration) of the test substance at which growth is just no longer discernible (corresponds to the MIC) is determined.

Assay [2] relates to Candida albicans ATCC 10231. On the procedure:
as §1, §2, §3

In assay [3] the test system is Escherichia coli NCTC 8196. The conditions noted are these: NCTC8196, 24 hours at 37° C. On the procedure: as §1, §2, §3
The test system of assay [4] is Pseudomonas aeruginosa CIP A-22. To be noted: CIPA22, 24 hours at 37° C. How it is done:
as §1, §2, §3

Assay [5] deals with Staphylococcus aureus ATCC 9144. To be noted: ATCC9144, 24 hours at 37° C. How it is done: as §1, §2, §3
Assay [6] has as its system Corynebacterium xerosis ATCC 373. The conditions noted are these: ATCC373, 24 h. How it is done: (§4) Determination of the Minimum Inhibitory Concentration (MIC) in the Agar Incorporation Test (MIC Test) [table] Test Principle: 0.3 ml of each dilution stage is mixed with 15 ml of still-liquid nutrient medium. After the nutrient medium has solidified, 10 μl of each of the following organism dilutions of the test strains in 0.85% NaCl solution are spotted onto the agar medium: The plates are incubated for 24 hours at 37° C. (A. niger 3 days at 28° C.) and then the highest dilution (lowest concentration) of the test substance at which growth is just no longer discernible (corresponds to the MIC) is determined.

For assay [7], the system named is Escherichia coli ATCC 10536. To be noted: ATCC10536. On the procedure: as §4
Assay [8] has as its system Staphylococcus hominis DSM 20328. To be noted: DSM20328. How it is done: as §4
In assay [9] the test system is Enterococcus hirae ATCC 10541. The conditions noted are these: ATCC10541. How it is done:
as §4

The mark [10] stands for this setting: ATCC10231, Candida albicans ATCC 10231, 24 hours at 37° C.
The mark [11] stands for this setting: 24 h, Candida albicans ATCC 1023 (as printed in Table 3e).

≈ marks a conversion by molar mass, not a printed value.

For `CC(Cc1cc(Oc2ccccc2)ccc1O)C[Si](C)(C)c1ccccc1` (stereo not drawn) [(120)], the minimum inhibitory concentration (MIC) in assay [1] was greater than 1000 µg/mL; in assay [2] (setting [10]), greater than 1000 µg/mL; in assay [3], greater than 1000 µg/mL; in assay [4], greater than 1000 µg/mL; in assay [5], 8 µg/mL (≈ 21.2 µM); in [6], 4 µg/mL (≈ 10.6 µM).
For the compound `CC(Cc1ccc2ccccc2c1O)C[Si](C)(O[Si](C)(C)C)O[Si](C)(C)C` (stereo not drawn) [(117)], the minimum inhibitory concentration (MIC) in assay [1] is greater than 1000 µg/mL; in [2] (setting [11]), greater than 1000 µg/mL; in [5], greater than 1000 µg/mL; in [6] it was 1000 µg/mL (≈ 2380 µM); in [7] it was greater than 1000 µg/mL; in [8], greater than 1000 µg/mL.
For `Cc1ccc(O)c(CCC[Si](C)(C)O[Si](C)(C)C)c1` [(114)], the MIC in [1] was greater than 1000 µg/mL; in assay [2] (setting [10]), greater than 1000 µg/mL; in assay [3] it was greater than 1000 µg/mL; in [4], greater than 1000 µg/mL; in [5] it was 8 µg/mL (≈ 27 µM); in assay [6], 8 µg/mL (≈ 27 µM).
For the compound `CC(Cc1ccc2ccccc2c1O)C[Si](C)(C)c1ccccc1` (stereo not drawn) [(121)], the minimal inhibitory concentration (MIC) in [1] is greater than 1000 µg/mL; in [2] (setting [11]) it was greater than 1000 µg/mL; in assay [5], greater than 1000 µg/mL; in [6], 250 µg/mL (≈ 747 µM); in assay [7] it was greater than 1000 µg/mL; in [8] it was greater than 1000 µg/mL.
Regarding `CC[Si](CC)(CC)CC(C)Cc1cc(Oc2ccccc2)ccc1O` (stereo not drawn) [(118)], the MIC in assay [1] is greater than 1000 µg/mL; in [2] (setting [10]), greater than 1000 µg/mL; in assay [3], greater than 1000 µg/mL; in [4], greater than 1000 µg/mL; in assay [5], 4 µg/mL (≈ 11.2 µM).
In the case of `C[Si](C)(C)O[Si](C)(CCCc1ccc2ccccc2c1O)O[Si](C)(C)C` [(116)], the MIC in assay [1] was greater than 1000 µg/mL; in assay [2] (setting [11]), greater than 1000 µg/mL; in assay [5], greater than 1000 µg/mL; in assay [6], 500 µg/mL (≈ 1230 µM); in [7], greater than 1000 µg/mL; in assay [8] it was greater than 1000 µg/mL.
For `COc1cc(CCC[Si](C)(O[Si](C)(C)C)O[Si](C)(C)C)ccc1O` [(102)], the MIC in assay [1], in [2] (setting [10]), in assay [3], in assay [4] and in assay [5] was greater than 1000 µg/mL throughout.
Take `CC(Cc1cc(C(C)(C)C)ccc1O)C[Si](C)(O[Si](C)(C)C)O[Si](C)(C)C` (stereo not drawn) [(108)]: the MIC in assay [1] was greater than 1000 µg/mL; in assay [2] (setting [10]), greater than 1000 µg/mL; in assay [3], greater than 1000 µg/mL; in assay [4] it was greater than 1000 µg/mL; in assay [6], 8 µg/mL (≈ 18.7 µM).
Turning to `C[Si](C)(CCCc1cc(Cl)ccc1O)c1ccccc1` [(119)], the MIC is 62 µg/mL (≈ 203 µM) in assay [1]; 62 µg/mL (≈ 203 µM) in assay [2] (setting [10]); greater than 1000 µg/mL in [3]; greater than 1000 µg/mL in assay [4]; 4 µg/mL (≈ 13.1 µM) in [5]; 2 µg/mL (≈ 6.56 µM) in [6].
Regarding `COc1ccc(O)c(CCC[Si](C)(C)c2ccccc2)c1` [(111)], the MIC in assay [1] was greater than 1000 µg/mL; in assay [2] (setting [10]) it was greater than 1000 µg/mL; in assay [3], greater than 1000 µg/mL; in assay [4] it was greater than 1000 µg/mL; in assay [5], 125 µg/mL (≈ 416 µM); in assay [6], 8 µg/mL (≈ 26.6 µM).
In the case of `CC(Cc1cc(Oc2ccccc2)ccc1O)C[Si](C)(O[Si](C)(C)C)O[Si](C)(C)C` (stereo not drawn) [(101)], the MIC in [1] was greater than 1000 µg/mL; in [2] (setting [10]), greater than 1000 µg/mL; in assay [3] it was greater than 1000 µg/mL; in assay [4] it was greater than 1000 µg/mL; in [5], 1000 µg/mL (≈ 2160 µM).
As to `C[Si](C)(C)O[Si](C)(CCCc1ccccc1O)O[Si](C)(C)C` [(104)], the MIC in assay [1] was greater than 1000 µg/mL; in assay [2] (setting [10]), greater than 1000 µg/mL; in assay [3], greater than 1000 µg/mL; in assay [4], greater than 1000 µg/mL; in assay [5] it was 8 µg/mL (≈ 22.4 µM).
Take `C[Si](C)(C)O[Si](C)(C)CCCc1ccccc1O` [(106)]: the MIC in [1] is 31.2 µg/mL (≈ 110 µM); in assay [2] (setting [10]) it was greater than 1000 µg/mL; in [3], greater than 1000 µg/mL; in assay [4], greater than 1000 µg/mL; in [5], 7.8 µg/mL (≈ 27.6 µM); in assay [6] it was 7.8 µg/mL (≈ 27.6 µM). Further, the results for the MIC in assay [9] and in assay [8] were 15.6 µg/mL (≈ 55.2 µM) and 31.2 µg/mL (≈ 110 µM), respectively.
On to `C[Si](C)(CCCc1ccccc1O)c1ccccc1` [(107)], for which the MIC in [1] is 15.6 µg/mL (≈ 57.7 µM); in assay [2] (setting [10]), 125 µg/mL (≈ 462 µM); in [3], greater than 1000 µg/mL; in assay [4], greater than 1000 µg/mL; in assay [5], 1.9 µg/mL (≈ 7.03 µM); in assay [6], 1.9 µg/mL (≈ 7.03 µM). For the same compound, the minimal inhibitory concentration (MIC) came out at 3.9 µg/mL (≈ 14.4 µM) in assay [9] and 7.8 µg/mL (≈ 28.8 µM) in [8].
Take `C[Si](C)(C)O[Si](C)(C)O[Si](C)(C)CCCc1cc(Cl)ccc1O` [(112)]: the MIC was greater than 1000 µg/mL in assay [1]; greater than 1000 µg/mL in assay [2] (setting [10]); greater than 1000 µg/mL in [3]; greater than 1000 µg/mL in assay [4]; 7 µg/mL (≈ 17.9 µM) in assay [5]; 2 µg/mL (≈ 5.11 µM) in [6].
Regarding `CC(Cc1cc(-c2ccccc2)ccc1O)C[Si](C)(O[Si](C)(C)C)O[Si](C)(C)C` (stereo not drawn) [(103)], the MIC was greater than 560 µg/mL in assay [1]; greater than 560 µg/mL in assay [2] (setting [10]); greater than 560 µg/mL in assay [3]; greater than 560 µg/mL in assay [4]; greater than 560 µg/mL in assay [5]; 17.5 µg/mL (≈ 39.2 µM) in assay [6]. The MIC in assay [9] and in [8] was greater than 560 µg/mL throughout.
With `C[Si](C)(C)O[Si](C)(C)O[Si](C)(C)CCCc1ccccc1O` [(105)], the MIC in assay [1] is greater than 1000 µg/mL; in assay [2] (setting [10]), greater than 1000 µg/mL; in [3], greater than 1000 µg/mL; in [4] it was greater than 1000 µg/mL; in assay [5], 15.6 µg/mL (≈ 43.7 µM); in assay [6] it was 3.9 µg/mL (≈ 10.9 µM). Also, the MIC in [9] was 15.6 µg/mL (≈ 43.7 µM); in assay [8], greater than 1000 µg/mL.
As for `COc1ccc(O)c(CCC[Si](C)(O[Si](C)(C)C)O[Si](C)(C)C)c1` [(110)], the MIC is greater than 1000 µg/mL in [1]; greater than 1000 µg/mL in assay [2] (setting [10]); greater than 1000 µg/mL in [3]; greater than 1000 µg/mL in assay [4]; 250 µg/mL (≈ 646 µM) in [5]; 4 µg/mL (≈ 10.3 µM) in assay [6].
`C[Si](C)(C)O[Si](C)(C)CCCc1cc(Cl)ccc1O` [(115)]: the minimum inhibitory concentration (MIC) in assay [1] is 500 µg/mL (≈ 1580 µM); in assay [2] (setting [10]) it was 500 µg/mL (≈ 1580 µM); in [3], 250 µg/mL (≈ 789 µM); in [4], greater than 1000 µg/mL; in assay [5], 15 µg/mL (≈ 47.3 µM); in assay [6], 8 µg/mL (≈ 25.2 µM).
